This passage reports inhibition and IC50 results from US20260234157A1, “COMPOUND AND METHOD FOR TARGETED DEGRADATION OF ANDROGEN RECEPTOR” (Gan & Lee Pharmaceuticals Co., Ltd., priority 2023, published 2026).

Positions count from the first letter of the chain named. Like-named read-outs stand apart in the source and are kept apart here.

Type in all cases: cell-based
In experiment [1] the target is T1, AR protein (Homo sapiens, UniProt P10275, T878A).
T1 construct: degradation activity of the compounds disclosed in the present disclosure on AR protein in LNCaP cells; host or cells: LNCaP FGC
T1 sequence (P10275 1-920 T878A): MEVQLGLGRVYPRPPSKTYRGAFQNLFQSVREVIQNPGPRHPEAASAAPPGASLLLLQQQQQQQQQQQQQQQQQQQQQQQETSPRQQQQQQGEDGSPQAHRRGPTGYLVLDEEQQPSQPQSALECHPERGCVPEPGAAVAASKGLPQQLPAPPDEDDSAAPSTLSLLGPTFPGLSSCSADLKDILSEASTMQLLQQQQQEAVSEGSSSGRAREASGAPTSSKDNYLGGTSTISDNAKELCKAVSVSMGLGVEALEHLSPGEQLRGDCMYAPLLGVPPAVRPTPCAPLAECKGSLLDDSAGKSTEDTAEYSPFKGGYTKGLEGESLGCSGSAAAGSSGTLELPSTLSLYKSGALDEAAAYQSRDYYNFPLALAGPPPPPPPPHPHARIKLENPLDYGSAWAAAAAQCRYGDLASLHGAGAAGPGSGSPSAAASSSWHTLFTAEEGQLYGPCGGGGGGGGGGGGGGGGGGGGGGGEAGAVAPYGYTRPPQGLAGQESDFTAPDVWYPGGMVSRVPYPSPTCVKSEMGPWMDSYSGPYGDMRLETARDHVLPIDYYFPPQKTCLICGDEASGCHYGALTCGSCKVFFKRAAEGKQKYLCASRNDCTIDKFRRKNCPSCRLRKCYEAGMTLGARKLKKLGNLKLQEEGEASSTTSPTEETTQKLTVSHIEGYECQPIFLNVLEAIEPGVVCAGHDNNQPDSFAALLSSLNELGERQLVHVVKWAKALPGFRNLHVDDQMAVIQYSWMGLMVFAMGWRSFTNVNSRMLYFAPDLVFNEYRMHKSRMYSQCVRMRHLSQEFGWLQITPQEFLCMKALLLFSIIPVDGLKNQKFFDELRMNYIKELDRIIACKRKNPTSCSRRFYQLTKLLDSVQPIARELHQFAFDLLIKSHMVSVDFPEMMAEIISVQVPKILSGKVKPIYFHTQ
In words: Degradation of AR protein in LNCaP cells (Western blot). Particulars: for inhibition at 0.01 µM: read-out: Degradation rates of the AR protein in LNCaP cells, 10 nM (%); for inhibition at 0.1 µM: read-out: Degradation rates of the AR protein in LNCaP cells, 100 nM (%). In outline:
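Percent AR degradation was derived from GAPDH-normalised Western blot band intensities (infrared detection) in LNCaP lysates.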

Experiment [2] deals with T2, AR protein (Homo sapiens, UniProt P10275).
T2 construct: degradation activity of the compounds disclosed in the present disclosure on AR protein in VCaP cells; host or cells: VCaP
T2 sequence (P10275 1-920): T1 sequence (P10275 1-920 T878A) with A878T
In words: Degradation of AR protein in VCaP cells (Western blot). Particulars: 8 hours; for inhibition at 0.01 µM: compound at 10 nM, read-out: Degradation rate of the AR protein in VCaP cells, 10 nM (%); for inhibition at 0.1 µM: compound at 100 nM, read-out: Degradation rate of the AR protein in VCaP cells, 100 nM (%). The procedure, abridged:
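Western blot readout: AR band grayscale normalised to GAPDH, used to derive degradation rate. Lysates came from VCaP cells exposed to compound for 8 h, with solvent controls run in parallel.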
In general terms: In western blotting, separated proteins are transferred to a membrane and probed.

Another experiment relates to LNCaP FGC cells. In words: Inhibition of proliferation of LNCaP cells (WST-8). The note with it: Homo sapiens, LNCaP, 96 h. The procedure: The cells were cultured in a cell culture incubator with 5% CO2 at 37° C. overnight. […] On the sixth day, 96 well plates were taken out, and 20 μL of WST-8 (Beytime, C0040) reagent was added to each well.
A general note: Tetrazolium dyes change colour on reduction, which living cells bring about.

A further experiment relates to VCaP cells. In words: Inhibition of proliferation of VCaP cells (WST-8). Particulars: Homo sapiens, read-out: IC50 for inhibiting the proliferation of VCaP cells. The procedure, abridged: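 Proliferation was read by WST-8 on day nine. Cells were VCaP FGC, seeded at 15000 cells per well in 10% FBS DMEM and kept at 37° C with 5% CO2.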
The mark [3] stands for this setting: LNCaP cells, compound 10 nM, 8 hours, Western blot grayscale, GAPDH internal reference.
The mark [4] stands for this setting: LNCaP cells, compound 100 nM, 8 hours, Western blot grayscale, GAPDH internal reference.
[5] abbreviates: LNCaP FGC cells, 96 hours, WST-8 absorbance at 450 nm, read-out: IC50 for inhibiting the proliferation of LNCaP cells.
The mark [6] stands for this setting: VCaP cells, 168 hours, WST-8 absorbance at 450 nm.
Setting [7] is: read-out: IC50 for inhibiting the proliferation of LNCaP cells, LNCaP FGC cells, 96 hours, WST-8 absorbance at 450 nm.

Take `N#Cc1ccc(O[C@H]2CC[C@H](NC(=O)c3ccc(N4CCC(F)(CN5CCC6(CC5)COc5c6ccc6c5CN(C5CCC(=O)NC5=O)C6=O)CC4)cn3)CC2)cc1Cl` (stereo partly drawn) [Compound 260]: the inhibition at 0.01 µM was 13% on AR protein [1] (setting [3]) and 15% at AR protein [2]. In addition, the values for the inhibition at 0.1 µM on AR protein [1] (setting [4]) and on AR protein [2] were 9% and 74%, respectively. In addition, the IC50 in the experiment on LNCaP FGC cells (setting [5]) stood at 4 nM; with VCaP cells (setting [6]), 1 nM.

As to `COc1cc(O[C@H]2CC[C@H](NC(=O)c3ccc(N4CCC(CN5CCC6(CC5)COc5c6ccc6c5C(=O)N(C5CCC(=O)NC5=O)C6=O)(OC)CC4)nn3)CC2)ccc1C#N` (stereo partly drawn) [Compound 272], the inhibition at 0.01 µM on AR protein [1] (setting [3]) turned out to be 45%; on AR protein [2], 38%. In addition, the inhibition at 0.1 µM on AR protein [1] (setting [4]) was 52%; at AR protein [2] it was 75%. Besides, the IC50 in the experiment on LNCaP FGC cells (setting [5]) turned out to be 100 nM; in the experiment on VCaP cells (setting [6]), 63 nM.

In the case of `N#Cc1ccc(O[C@H]2CC[C@H](NC(=O)c3ccc(N4CC(N5CCC6(CC5)COc5cc7c(cc56)C(=O)N(C5CCC(=O)NC5=O)C7=O)C4)nn3)CC2)cc1Cl` (stereo partly drawn) [Compound 49], the inhibition at 0.01 µM on AR protein [1] (LNCaP, 8 h) is 24%; on AR protein [2], 24%. Also, the inhibition at 0.1 µM at AR protein [1] (LNCaP, 8 h) turned out to be 36%; at AR protein [2], 61%. Besides, the IC50 in the experiment on LNCaP FGC cells (setting [7]) was 2810 nM; in the experiment with VCaP cells (VCaP, 168 h), 4000 nM.

Regarding `N#Cc1ccc(O[C@H]2CC[C@H](NC(=O)c3ccc(N4CCC5(CCC(N6CCC7(CC6)COc6cc8c(cc6C7)C(=O)N(C6CCC(=O)NC6=O)C8=O)CC5)C4)nn3)CC2)cc1Cl` (stereo partly drawn) [Compound 62], the inhibition at 0.01 µM at AR protein [1] (setting [3]) is 46%; at AR protein [2], 66%. Moreover, the results for the inhibition at 0.1 µM on AR protein [1] (setting [4]) and at AR protein [2] were 76% and 74%, respectively. The values for the IC50 in the experiment with LNCaP FGC cells (setting [5]) and in the experiment with VCaP cells (setting [6]) were 820 nM and 520 nM, respectively.

As to `N#Cc1ccc(O[C@H]2CC[C@H](NC(=O)c3ccc(N4CCC5(CC4)CC(N4CCC6(CCc7ccc8c(c7O6)CN(C6CCC(=O)NC6=O)C8=O)CC4)C5)nn3)CC2)cc1Cl` (stereo partly drawn) [Compound 154], the inhibition at 0.01 µM on AR protein [1] (setting [3]) came out at 46%; on AR protein [2], 75%. Also, the inhibition at 0.1 µM was 48% on AR protein [1] (setting [4]) and 86% on AR protein [2]. In addition, the IC50 was 39400 nM in the experiment with LNCaP FGC cells (setting [5]) and 10 nM in the experiment on VCaP cells (setting [6]).

As for `N#Cc1ccc(O[C@H]2CC[C@H](NC(=O)c3ccc(N4CCC(CC(=O)N5CCC6(CC5)COc5c6ccc6c5CN(C5CCC(=O)NC5=O)C6=O)CC4)nn3)CC2)cc1Cl` (stereo partly drawn) [Compound 192], the results for the inhibition at 0.01 µM on AR protein [1] (setting [3]) and on AR protein [2] were 37% and 66%, respectively. In addition, the inhibition at 0.1 µM came out at 35% at AR protein [1] (setting [4]) and 86% on AR protein [2]. Further, the IC50 in the experiment with LNCaP FGC cells (setting [5]) was found to be 2590 nM; with VCaP cells (setting [6]), 3 nM.

With `N#Cc1ccc(O[C@H]2CC[C@H](NC(=O)c3ccc(N4CCC(N5CCC(N6CCC7(CC6)COc6c7ccc7c6CN(C6CCC(=O)NC6=O)C7=O)CC5)CC4)nn3)CC2)cc1Cl` (stereo partly drawn) [Compound 173], the inhibition at 0.01 µM on AR protein [1] (LNCaP, 8 h) is 75%; on AR protein [2], 75%. Further, the inhibition at 0.1 µM on AR protein [1] (LNCaP, 8 h) turned out to be 72%; at AR protein [2] it was 86%. Also, the IC50 with LNCaP FGC cells (setting [7]) amounted to 12300 nM; with VCaP cells (VCaP, 168 h) it was 1 nM.

With `N#Cc1ccc(O[C@H]2CC[C@H](NC(=O)c3ccc(N4CC5(CC(C(=O)N6CCC7(CC6)COc6c7ccc7c6CN(C6CCC(=O)NC6=O)C7=O)C5)C4)nn3)CC2)cc1Cl` (stereo partly drawn) [Compound 256], the inhibition at 0.01 µM on AR protein [1] (setting [3]) is 47%; on AR protein [2], 48%. The inhibition at 0.1 µM was 36% at AR protein [1] (setting [4]) and 81% on AR protein [2]. Also, the results for the IC50 in the experiment with LNCaP FGC cells (setting [5]) and in the experiment on VCaP cells (setting [6]) were 56000 nM and 7.5 nM, respectively.

On to `COc1cc(O[C@H]2CC[C@H](NC(=O)c3ccc(N4CCC(O)(CN5CCC6(CC5)COc5c6ccc6c5C(=O)N(C5CCC(=O)NC5=O)C6=O)CC4)nn3)CC2)ccc1C#N` (stereo partly drawn) [Compound 215], for which the inhibition at 0.01 µM at AR protein [1] (setting [3]) worked out at 86%; on AR protein [2], 63%. The inhibition at 0.1 µM stood at 91% on AR protein [1] (setting [4]) and 82% on AR protein [2]. The figures for the IC50 with LNCaP FGC cells (setting [5]) and in the experiment with VCaP cells (setting [6]) were 220 nM and 500 nM, respectively.

As to `COc1cc(O[C@H]2C(C)(C)[C@H](NC(=O)c3ccc(N4CCC(F)(CN5CCC6(CC5)COc5cc7c(cc5C6)C(=O)N(C5CCC(=O)NC5=O)C7=O)CC4)cc3)C2(C)C)ccc1C#N` (stereo partly drawn) [Compound 271], the figures for the inhibition at 0.01 µM at AR protein [1] (setting [3]) and on AR protein [2] were -3% and -47%, respectively. In addition, the inhibition at 0.1 µM at AR protein [1] (setting [4]) is 10%; at AR protein [2] it was -5%. Also, the IC50 is 37900 nM in the experiment on LNCaP FGC cells (setting [5]) and 100 nM with VCaP cells (setting [6]).

In the case of `N#Cc1ccc(O[C@H]2CC[C@H](NC(=O)c3ccc(N4CCC(CN5CC6(CCc7cc8c(cc7O6)C(=O)N(C6CCC(=O)NC6=O)C8)C5)CC4)nn3)CC2)cc1Cl` (stereo partly drawn) [Compound 8], the inhibition at 0.01 µM at AR protein [1] (setting [3]) is 78%; at AR protein [2], 24%. For the same compound, the inhibition at 0.1 µM on AR protein [1] (setting [4]) came to 67%; at AR protein [2], 76%. In addition, the figures for the IC50 in the experiment with LNCaP FGC cells (setting [5]) and in the experiment on VCaP cells (setting [6]) were 2090 nM and 1 nM, respectively.

As to `COc1cc(O[C@H]2C(C)(C)[C@H](NC(=O)c3ccc(N4CCC(CN5CC6(CCc7ccc8c(c7O6)C(=O)N(C6CCC(=O)NC6=O)C8=O)C5)CC4)cc3)C2(C)C)ccc1C#N` (stereo partly drawn) [Compound 278], the inhibition at 0.01 µM at AR protein [1] (setting [3]) is -3%; at AR protein [2] it was -30%. The inhibition at 0.1 µM on AR protein [1] (setting [4]) is 34%; on AR protein [2], -16%. Besides, the results for the IC50 in the experiment on LNCaP FGC cells (setting [5]) and in the experiment with VCaP cells (setting [6]) were 60000 nM and 9200 nM, respectively.
